#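 Values below derive from 48-hour exposures of cells grown in 96-well plates, with endpoints linearly interpolated between the two concentrations bracketing the appropriate inhibition level. GI50 is the concentration that inhibits growth by half.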 Active and inactive are the calls of the source. Rule as the data show it: active = GI50 up to about 1.1 µM and inactive = higher.
# How the values were obtained:
# Experiment in all cases: inhibition of tumour cell growth, NCI panel, 48 h
# [1] = system: M14
# [2] = system: MDA-MB-231
# [3] = system: Malme-3M
# [4] = system: KM12
# [5] = system: SNB-78
# [6] = system: MDA-N
# [7] = system: MDA-MB-435
# [8] = system: COLO 205
# [9] = system: KM-20L2
# [10] = system: SK-MEL-2
# [11] = system: PC-3
# [12] = system: EKVX
# [13] = system: K562
# [14] = system: LXFL 529
# [15] = system: U-251
# [16] = system: LOX IMVI
# [17] = system: M19-MEL
# [18] = system: OVCAR-8
# [19] = system: SW-620
# [20] = system: DLD-1
Structure (SMILES),GI50 [1],GI50 [2],GI50 [3],GI50 [4],GI50 [5],GI50 [6],GI50 [7],GI50 [8],GI50 [9],GI50 [10],GI50 [11],GI50 [12],GI50 [13],GI50 [14],GI50 [15],GI50 [16],GI50 [17],GI50 [18],GI50 [19],GI50 [20]
COc1cc2nncc(SCc3ccc(Cl)c(Cl)c3)c2cc1OC,> 35.6 µM (inactive),> 100 µM (inactive),> 100 µM (inactive),> 62.7 µM (inactive),40.7 µM (inactive),> 100 µM (inactive),> 100 µM (inactive),> 100 µM (inactive),6.85 µM (inactive),> 100 µM (inactive),> 100 µM (inactive),> 100 µM (inactive),> 94.8 µM (inactive),17.7 µM (inactive),50.5 µM (inactive),26.2 µM (inactive),> 100 µM (inactive),> 100 µM (inactive),> 100 µM (inactive),–
CCC1C(=O)OCc2c1cc1n(c2=O)C(CC)c2c-1nc1ccccc1c2Cl (configuration not stated),33.7 µM (inactive),–,38.8 µM (inactive),24.6 µM (inactive),25.6 µM (inactive),–,–,16.2 µM (inactive),31.3 µM (inactive),21 µM (inactive),–,25.2 µM (inactive),27.9 µM (inactive),25.9 µM (inactive),19.3 µM (inactive),33.1 µM (inactive),32.4 µM (inactive),–,24 µM (inactive),35.2 µM (inactive)
CCOc1ccc(NC(=O)CC2SC(N)=NC2=O)cc1 (configuration not stated),> 100 µM (inactive),–,> 100 µM (inactive),> 100 µM (inactive),> 100 µM (inactive),–,–,> 100 µM (inactive),> 100 µM (inactive),> 100 µM (inactive),–,> 100 µM (inactive),–,> 100 µM (inactive),> 100 µM (inactive),> 100 µM (inactive),> 100 µM (inactive),> 100 µM (inactive),> 100 µM (inactive),> 100 µM (inactive)
CCNC(C)Cc1ccccc1 (configuration not stated),> 100 µM (inactive),–,> 100 µM (inactive),> 100 µM (inactive),> 100 µM (inactive),–,–,> 100 µM (inactive),> 100 µM (inactive),> 100 µM (inactive),–,> 100 µM (inactive),> 100 µM (inactive),> 100 µM (inactive),> 100 µM (inactive),> 100 µM (inactive),–,> 100 µM (inactive),> 100 µM (inactive),> 100 µM (inactive)
COc1cc([C@@H]2c3cc4c(cc3[C@@H](NC(=O)c3ccc(C(C)=O)cc3)C3COC(=O)[C@@H]32)OCO4)cc(OC)c1O (some centres not stated),1.51 µM (inactive),–,0.254 µM (active),1.36 µM (inactive),8.99 µM (inactive),–,–,3.61 µM (inactive),0.724 µM (active),2.82 µM (inactive),–,1.89 µM (inactive),1.48 µM (inactive),5.56 µM (inactive),0.0743 µM (active),0.289 µM (active),3.01 µM (inactive),1.35 µM (inactive),0.24 µM (active),1.4 µM (inactive)
COc1ccc(OC(C(=O)O)C(C)C)c2c1CCCC2=O (configuration not stated),> 100 µM (inactive),–,> 100 µM (inactive),> 100 µM (inactive),> 100 µM (inactive),–,–,> 100 µM (inactive),> 100 µM (inactive),> 100 µM (inactive),–,> 100 µM (inactive),> 100 µM (inactive),> 100 µM (inactive),> 100 µM (inactive),> 100 µM (inactive),> 100 µM (inactive),> 100 µM (inactive),> 100 µM (inactive),> 100 µM (inactive)
COc1ccc(N2C(=O)[C@@H]3[C@@H]4CC(C)CC[C@@H]4c4c([nH]c5ccccc45)[C@@H]3C2=O)cc1 (some centres not stated),26.4 µM (inactive),–,34.4 µM (inactive),50.1 µM (inactive),3.76 µM (inactive),–,–,33 µM (inactive),> 54.8 µM (inactive),8.79 µM (inactive),–,28.9 µM (inactive),30.7 µM (inactive),20.3 µM (inactive),11.4 µM (inactive),10.5 µM (inactive),> 70.1 µM (inactive),12.8 µM (inactive),13.1 µM (inactive),29.5 µM (inactive)
CC1=C(C)CC2(CCCCC2=O)[S+]([O-])C1 (configuration not stated),> 100 µM (inactive),–,> 100 µM (inactive),> 100 µM (inactive),> 100 µM (inactive),–,–,> 100 µM (inactive),> 100 µM (inactive),> 100 µM (inactive),–,> 100 µM (inactive),> 100 µM (inactive),> 100 µM (inactive),> 100 µM (inactive),> 100 µM (inactive),> 100 µM (inactive),> 100 µM (inactive),> 100 µM (inactive),> 100 µM (inactive)
CN(C)c1nc(N(C)C)nc(N(C)CN(C)c2ccc(Cl)cc2)n1,–,–,> 100 µM (inactive),> 100 µM (inactive),> 100 µM (inactive),–,–,–,–,> 100 µM (inactive),–,–,> 100 µM (inactive),> 100 µM (inactive),> 100 µM (inactive),> 100 µM (inactive),> 100 µM (inactive),> 100 µM (inactive),> 100 µM (inactive),> 100 µM (inactive)
O=C1NC(=O)C2C(=O)NC(=O)C1C2(c1ccccc1)c1ccc(Cl)cc1 (configuration not stated),> 100 µM (inactive),–,> 100 µM (inactive),> 100 µM (inactive),> 100 µM (inactive),–,–,> 100 µM (inactive),> 100 µM (inactive),> 100 µM (inactive),–,> 100 µM (inactive),> 100 µM (inactive),> 100 µM (inactive),–,> 100 µM (inactive),> 100 µM (inactive),> 100 µM (inactive),> 100 µM (inactive),> 100 µM (inactive)
O=C(Nc1c(Cl)cc([N+](=O)[O-])cc1Cl)C(=O)C(C1OC(=O)c2ccccc21)[N+](=O)[O-] (configuration not stated),> 100 µM (inactive),–,> 100 µM (inactive),> 100 µM (inactive),41.2 µM (inactive),–,–,> 100 µM (inactive),> 100 µM (inactive),> 100 µM (inactive),–,75.9 µM (inactive),> 100 µM (inactive),> 100 µM (inactive),> 100 µM (inactive),81.7 µM (inactive),> 100 µM (inactive),> 100 µM (inactive),> 100 µM (inactive),> 100 µM (inactive)
O=C(CCN(C(=O)O)S(=O)(=O)c1ccc(NC(=O)c2ccccc2)cc1)NC1CCCCC1,> 100 µM (inactive),–,> 100 µM (inactive),> 100 µM (inactive),> 100 µM (inactive),–,–,47.4 µM (inactive),> 100 µM (inactive),> 100 µM (inactive),–,> 100 µM (inactive),27.4 µM (inactive),> 100 µM (inactive),36.3 µM (inactive),> 100 µM (inactive),59.7 µM (inactive),> 100 µM (inactive),16.3 µM (inactive),62.5 µM (inactive)
O=C(CCC(=O)C1CCC/C1=N/O)Nc1ccc(Cl)cc1 (configuration not stated),> 100 µM (inactive),–,> 100 µM (inactive),> 100 µM (inactive),> 100 µM (inactive),–,–,> 100 µM (inactive),> 100 µM (inactive),> 100 µM (inactive),–,> 100 µM (inactive),> 100 µM (inactive),> 100 µM (inactive),> 100 µM (inactive),–,> 100 µM (inactive),> 100 µM (inactive),> 100 µM (inactive),> 100 µM (inactive)
CC(=O)OCC1OC(n2cc([N+](=O)[O-])c(=O)[nH]c2=O)C(OC(C)=O)C(OC(C)=O)C1OC(C)=O (configuration not stated),> 100 µM (inactive),–,> 100 µM (inactive),> 100 µM (inactive),–,–,–,> 100 µM (inactive),> 100 µM (inactive),> 100 µM (inactive),–,> 100 µM (inactive),> 100 µM (inactive),> 100 µM (inactive),> 100 µM (inactive),> 100 µM (inactive),> 100 µM (inactive),> 100 µM (inactive),> 100 µM (inactive),> 100 µM (inactive)
CN1Cc2c(nc(-c3ccccc3)c[n+]2[O-])N(C)C1,> 100 µM (inactive),–,> 100 µM (inactive),> 100 µM (inactive),> 100 µM (inactive),–,–,> 100 µM (inactive),> 100 µM (inactive),> 100 µM (inactive),–,> 100 µM (inactive),> 100 µM (inactive),> 100 µM (inactive),> 100 µM (inactive),> 100 µM (inactive),> 100 µM (inactive),> 100 µM (inactive),> 100 µM (inactive),> 100 µM (inactive)
CCOC(=O)C1=C(N)N(c2ccccc2)/C(=C(/C#N)c2nc3ccccc3[nH]2)S1,> 100 µM (inactive),–,> 100 µM (inactive),–,> 100 µM (inactive),–,–,> 100 µM (inactive),> 100 µM (inactive),> 100 µM (inactive),–,> 100 µM (inactive),> 100 µM (inactive),> 100 µM (inactive),> 100 µM (inactive),> 100 µM (inactive),> 100 µM (inactive),> 100 µM (inactive),> 100 µM (inactive),> 100 µM (inactive)
O=C1C(c2ccc([N+](=O)[O-])cc2)=C(Cl)C(=O)c2c(O)cccc21,21 µM (inactive),17.1 µM (inactive),19.6 µM (inactive),25.6 µM (inactive),25.5 µM (inactive),20.2 µM (inactive),17.7 µM (inactive),17.3 µM (inactive),–,17.9 µM (inactive),26.1 µM (inactive),20.5 µM (inactive),11.4 µM (inactive),9.51 µM (inactive),17.9 µM (inactive),17.3 µM (inactive),18.2 µM (inactive),27.5 µM (inactive),4.18 µM (inactive),11 µM (inactive)

# From ChEMBL document CHEMBL1201862, “PubChem BioAssay data set” (2004)
